For the data set the following is noted: mice, 75 mg/kg i.p., averaged data of three experiments, model fit.

Structures are written as SMILES.

Procedure: Enzyme nanosensor solutions were prepared using concentrated O2NS nanosensors (25 μL, ˜10^13 particles) and DAO (50 μL, 1.75IU). As a control, O2NS injections were made with concentrated nanosensors (25 μL) diluted with 50 μL of PBS. […] Mice were weighed, anesthetized with isoflurane (2% isoflurane, 98% oxygen), and placed in the IVIS imager. Two intradermal 30 μL injections of nanosensors were made along the midline of the back. Enzyme nanosensor was injected posterior to O2NS. After injection the animals are imaged every 30 seconds for 30 minutes. […] The mice were imaged for an additional 45 minutes to 1 hour. All animals were sacrificed after the end of the experiment. Three separate experiments were performed with new mice and fresh batches of nanosensor solution.
For data analysis, a region of interest encompassing the injection area was selected and intensity was recorded. […] The difference in normalized signals between the enzymatic nanosensors and O2NS was calculated for each mouse. […] The average data was then fit to a single compartment open model: Equation (1)
Where I is the normalized fluorescent intensity difference, A is a scaling parameter, ka and ke are the absorption and elimination rate constants and tlag is the lag time. The parameters ka, ke, and tlag were fit using the method of residuals and A was fit using least squares minimization for plotting purposes.

`Cl.Cl.NCCc1c[nH]cn1` [histamine, histamine dihydrochloride]: the lag time amounted to 4.8 min.

The record behind these values is US20150030544A1, “Enzymatic Nanosensor Compositions and Methods” (Northeastern University, priority 2012, published 2015).
